Measured values published in patent publication US10428081B2, “EGFR inhibitor, preparation method and use thereof” (Shanghai Hansoh Biomedical Co., Ltd., priority 2014, dated 2019).

Experiments:
[1] = target: exon 20 T790M mutant-type EGFR enzyme (Homo sapiens, UniProt P00533, T790M); assay: Enzymologic experiment of T790M mutant-type EGFR (TR-FRET); assay type: biochemical; conditions: for IC50: T790M EGFR enzyme, TR-FRET, ATP 1 to 10 uM; for Selectivity of wild-type/mutant-type: ratio WT IC50 / T790M IC50, enzyme
Experimental: (§1) 2) 1 to 5 μL of diluted solution in gradient of the compound was added.
(§2) 3) The mixture was incubated for 10 minutes at room temperature.
(§3) 6) 5 μL of EDTA stop solution was added to terminate the reaction for 5 minutes.
7) […] of a test solution containing the labeled antibody was added, and the mixture was incubated at room temperature for 1 hour.
9) The inhibition rates were calculated according to the fluorescence signal values.
(§4) 10) The IC50 of the compound was obtained by curve fitting according to the inhibition rates at different concentrations.

wild-type EGFR enzyme = wild-type EGFR enzyme (Homo sapiens, UniProt P00533); assay: Enzymologic experiment of wild-type (WT) EGFR (TR-FRET); assay type: biochemical; conditions: ATP 0.1 to 5 uM
Experimental: 2. Enzymologic Experiment of Wild-Type (WT) EGFR
In this experiment, the inhibitory effect of compounds on wild-type EGFR enzyme was tested by a fluorescence resonance energy transfer (TR-FRET) method, and the half maximal inhibitory concentration IC50 of the compounds on enzymatic activity was determined.
1) 1 to 5 μL of wild-type EGFR enzyme solution was added to a 384-well plate, and the final concentration of the enzyme was 0.1 to 1 nM.
as §1, §2, §3
7) 5 μL of a test solution containing the labeled antibody was added, and the mixture was incubated at room temperature for 1 hour.
9) The inhibition rates were calculated from the fluorescence signal values.
as §4

NCI-H1975 cells = assay: Inhibition of NCI-H1975 cell proliferation (CellTiter-Glo); assay type: cell-based; conditions: Homo sapiens, NCI-H1975, 72 h, NCI-H1975 cell proliferation, 72 hours, CellTiter-Glo; read-out: EGFR IC50 (nM) H1975
Experimental: 3. Experiment on the Inhibition of NCI-H1975 Cell Proliferation
In this experiment, the inhibitory effect of the compounds on NCI-H1975 cell proliferation was tested by a CellTiter-Glo method, and the half maximal inhibitory concentration (IC50) of the compounds on the activity of cell proliferation was determined.
The culture plate was incubated in an incubator for 16 to 24 hours (37° C., 5% CO2).
2) Different concentrations of the test compound in a gradient dilution were added to the cells in the culture plate. The culture plate was incubated in an incubator for 72 hours (37° C., 5% CO2).
3) 50 to 100 μL of CellTiter-Glo reagent was added to each well. Then, the culture plate was shaken for 10 minutes, and left to stand at room temperature for 10 minutes.
4) The chemiluminescence signal values of each plate were determined by a microplate reader.
5) The inhibition rates were calculated according to the chemiluminescence signal values.
6) The IC50 of the compound was obtained by curve fitting according to the inhibition rates at different concentrations.

Chain of exon 20 T790M mutant-type EGFR enzyme (P00533 25-1210 T790M): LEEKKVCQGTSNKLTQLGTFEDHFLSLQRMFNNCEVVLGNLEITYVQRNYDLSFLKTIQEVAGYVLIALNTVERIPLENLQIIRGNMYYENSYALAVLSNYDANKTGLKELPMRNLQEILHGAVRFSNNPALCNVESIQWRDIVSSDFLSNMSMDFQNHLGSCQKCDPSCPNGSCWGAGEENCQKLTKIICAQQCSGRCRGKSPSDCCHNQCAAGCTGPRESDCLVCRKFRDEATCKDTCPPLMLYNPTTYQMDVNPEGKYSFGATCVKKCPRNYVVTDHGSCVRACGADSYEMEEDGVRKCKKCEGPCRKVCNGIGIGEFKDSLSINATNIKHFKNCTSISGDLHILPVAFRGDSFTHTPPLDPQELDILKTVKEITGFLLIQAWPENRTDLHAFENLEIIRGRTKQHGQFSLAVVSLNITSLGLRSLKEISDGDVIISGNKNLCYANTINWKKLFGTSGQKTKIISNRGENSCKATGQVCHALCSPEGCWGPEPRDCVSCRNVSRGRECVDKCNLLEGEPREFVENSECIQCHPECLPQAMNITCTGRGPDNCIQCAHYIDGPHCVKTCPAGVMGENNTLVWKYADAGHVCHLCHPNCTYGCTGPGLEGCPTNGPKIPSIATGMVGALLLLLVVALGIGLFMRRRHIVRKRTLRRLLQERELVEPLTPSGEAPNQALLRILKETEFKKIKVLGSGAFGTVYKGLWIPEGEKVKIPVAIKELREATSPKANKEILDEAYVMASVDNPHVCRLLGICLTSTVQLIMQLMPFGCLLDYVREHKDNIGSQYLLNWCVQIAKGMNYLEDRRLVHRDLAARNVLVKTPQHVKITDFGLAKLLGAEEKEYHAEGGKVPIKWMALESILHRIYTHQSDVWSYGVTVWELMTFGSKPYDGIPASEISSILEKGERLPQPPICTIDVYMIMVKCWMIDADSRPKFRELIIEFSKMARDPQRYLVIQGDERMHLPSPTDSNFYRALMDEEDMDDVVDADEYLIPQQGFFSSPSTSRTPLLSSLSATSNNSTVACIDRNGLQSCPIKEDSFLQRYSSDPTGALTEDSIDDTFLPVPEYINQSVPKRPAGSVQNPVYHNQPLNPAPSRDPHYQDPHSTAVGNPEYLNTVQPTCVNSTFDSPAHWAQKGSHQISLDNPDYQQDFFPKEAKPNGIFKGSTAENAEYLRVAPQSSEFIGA
Chain of wild-type EGFR enzyme (P00533 25-1210): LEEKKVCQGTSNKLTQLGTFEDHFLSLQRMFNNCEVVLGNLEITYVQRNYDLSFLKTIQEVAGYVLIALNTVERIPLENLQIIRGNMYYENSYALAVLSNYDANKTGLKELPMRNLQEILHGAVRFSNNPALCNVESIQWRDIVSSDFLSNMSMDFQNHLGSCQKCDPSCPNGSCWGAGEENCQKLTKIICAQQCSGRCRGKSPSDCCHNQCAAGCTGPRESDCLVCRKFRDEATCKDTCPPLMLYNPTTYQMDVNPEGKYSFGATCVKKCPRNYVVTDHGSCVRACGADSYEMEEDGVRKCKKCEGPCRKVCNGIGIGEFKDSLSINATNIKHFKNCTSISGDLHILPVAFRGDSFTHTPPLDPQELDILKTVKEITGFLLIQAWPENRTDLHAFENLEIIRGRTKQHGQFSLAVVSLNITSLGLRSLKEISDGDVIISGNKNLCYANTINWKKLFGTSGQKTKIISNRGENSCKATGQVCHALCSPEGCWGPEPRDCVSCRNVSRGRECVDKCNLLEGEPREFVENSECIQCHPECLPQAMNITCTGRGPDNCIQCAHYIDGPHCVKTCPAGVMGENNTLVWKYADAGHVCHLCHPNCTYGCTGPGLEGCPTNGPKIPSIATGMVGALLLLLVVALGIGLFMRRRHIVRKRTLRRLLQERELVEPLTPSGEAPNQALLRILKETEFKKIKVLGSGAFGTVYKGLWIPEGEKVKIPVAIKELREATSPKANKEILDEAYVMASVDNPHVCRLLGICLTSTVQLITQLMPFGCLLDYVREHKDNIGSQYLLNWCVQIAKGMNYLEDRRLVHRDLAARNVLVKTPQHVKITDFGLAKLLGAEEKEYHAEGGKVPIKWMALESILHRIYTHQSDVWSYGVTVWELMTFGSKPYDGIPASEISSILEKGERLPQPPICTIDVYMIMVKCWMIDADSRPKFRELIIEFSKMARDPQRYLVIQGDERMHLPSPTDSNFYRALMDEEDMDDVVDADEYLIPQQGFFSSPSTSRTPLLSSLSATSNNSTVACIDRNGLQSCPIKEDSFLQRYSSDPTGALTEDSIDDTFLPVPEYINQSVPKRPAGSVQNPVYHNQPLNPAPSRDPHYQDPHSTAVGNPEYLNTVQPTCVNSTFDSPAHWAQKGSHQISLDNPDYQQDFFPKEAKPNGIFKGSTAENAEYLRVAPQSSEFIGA

## C=CC(=O)Nc1cc(Nc2ncc(C(F)(F)F)c(-n3cnc4ccc(OC)cc43)n2)c(OC)cc1N(C)CCN(C)C [Example 68, N-(2-((2-(dimethylamino)ethyl)(methyl)amino)-4-methoxy-5-((4-(6-methoxy-1H-benzo[d]imidazol-1-yl)-5-(trifluoromethyl)pyrimidin-2-yl)amino)phenyl)acrylamide]
[1]
  IC50: 0.99 nM
  Selectivity of wild-type/mutant-type: 193.03
wild-type EGFR enzyme
  IC50: 191 nM

## C=CC(=O)Nc1cc(Nc2nccc(-n3c(C)nc4cc(OC)ccc43)n2)c(OC)cc1N(C)CCN(C)C [Example 71, N-(2-((2-(dimethylamino)ethyl)(methyl)amino)-4-methoxy-5-((4-(5-methoxy-2-methyl-1H-benzo[d]imidazol-1-yl)pyrimidin-2-yl)amino)phenyl)acrylamide]
[1]
  IC50: 28.1 nM

## C=CC(=O)Nc1cc(Nc2nccc(-n3nc(C)c4ccc(OC)cc43)n2)c(OC)cc1N(C)CCN1CCCC1 [Example 132, N-(4-methoxy-5-((4-(6-methoxy-3-methyl-1H-indazol-1-yl)pyrimidin-2-yl)amino)-2-(methyl(2-(pyrrolidin-1-yl)ethyl)amino)phenyl)acrylamide]
[1]
  IC50: 1.29 nM
  Selectivity of wild-type/mutant-type: 9.34
wild-type EGFR enzyme
  IC50: 12 nM
NCI-H1975 cells
  IC50: 10.1 nM

## C=CC(=O)Nc1cc(Nc2nccc(-c3nn(C4CC4)c4ccccc34)n2)c(OC)cc1N(C)CCN(C)C [Example 119, N-(5-((4-(1-cyclopropyl-1H-indazol-3-yl)pyrimidin-2-yl)amino)-2-((2-(dimethylamino)ethyl)(methyl)amino)-4-methoxyphenyl)acrylamide]
[1]
  IC50: 0.47 nM
  Selectivity of wild-type/mutant-type: 9.23
wild-type EGFR enzyme
  IC50: 4.34 nM
NCI-H1975 cells
  IC50: 2.32 nM

## C=CC(=O)Nc1cc(Nc2nccc(-c3cn(C4CC4)c4ccccc34)n2)c(OC)cc1N(C)CCN1CCOCC1 [Example 124, N-(5-((4-(1-cyclopropyl-1H-indol-3-yl)pyrimidin-2-yl)amino)-4-methoxy-2-(methyl(2-morpholinoethyl)amino)phenyl)acrylamide]
[1]
  IC50: 4.18 nM
  Selectivity of wild-type/mutant-type: 45.43
wild-type EGFR enzyme
  IC50: 190 nM
NCI-H1975 cells
  IC50: 30.8 nM

## C=CCn1cc(-c2ccnc(Nc3cc(NC(=O)C=C)c(N(C)CCNC)cc3OC)n2)c2ccccc21 [Example 126, N-(5-((4-(1-allyl-1H-indol-3-yl)pyrimidin-2-yl)amino)-4-methoxy-2-(methyl(2-(methylamino)ethyl)amino)phenyl)acrylamide]
[1]
  IC50: 1.51 nM
  Selectivity of wild-type/mutant-type: 10.17
wild-type EGFR enzyme
  IC50: 15.4 nM
NCI-H1975 cells
  IC50: 34 nM

## C=CC(=O)Nc1cc(Nc2nccc(-c3cn(C)c4ccccc34)n2)c(OC)cc1N1CC2(COC2)C1 [Example 27, N-(4-methoxy-5-((4-(1-methyl-1H-indol-3-yl)pyrimidin-2-yl)amino)-2-(2-oxa-6-azaspiro[3,3]heptan-6-yl)phenyl)acrylamide]
[1]
  IC50: 50.2 nM

## C=CC(=O)Nc1cc(Nc2nccc(-c3cn(C4CC4)c4ccccc34)n2)c(OC(F)F)cc1N(C)CCN(C)C [Example 12, N-(5-((4-(1-cyclopropyl-1H-indol-3-yl)pyrimidin-2-yl)amino)-4-(difluoromethoxy)-2-((2-(dimethylamino)ethyl)(methyl)amino)phenyl)acrylamide]
[1]
  IC50: 0.32 nM
  Selectivity of wild-type/mutant-type: 18.7
wild-type EGFR enzyme
  IC50: 6.01 nM

## C=CC(=O)Nc1cc(Nc2ncc(Cl)c(-n3nc(OC)c4cc(Cl)ccc43)n2)c(OC)cc1N(C)CCN(C)C [Example 108, N-(5-((5-chloro-4-(5-chloro-3-methoxy-1H-indazol-1-yl)pyrimidin-2-yl)amino)-2-((2-(dimethylamino)ethyl)(methyl)amino)-4-methoxyphenyl)acrylamide]
[1]
  IC50: 1.33 nM
  Selectivity of wild-type/mutant-type: 89.47
wild-type EGFR enzyme
  IC50: 119 nM

## C=CC(=O)Nc1cc(Nc2ncc(C(F)(F)F)c(-n3nc(OC)c4cc(Cl)ccc43)n2)c(OC)cc1N(C)CCN(C)C [Example 109, N-(5-((4-(5-chloro-3-methoxy-1H-indazol-1-yl)-5-(trifluoromethyl)pyrimidin-2-yl)amino)-2-((2-(dimethylamino)ethyl)(methyl)amino)-4-methoxyphenyl)acrylamide]
[1]
  IC50: 5.18 nM
  Selectivity of wild-type/mutant-type: 74.79
wild-type EGFR enzyme
  IC50: 387 nM

## C=CC(=O)Nc1cc(Nc2nccc(-n3ncc4cc(C5CC5)ccc43)n2)c(OC)cc1N(C)CCN(C)C [Example 47, N-(5-((4-(5-cyclopropyl-1H-indazol-1-yl)pyrimidin-2-yl)amino)-2-((2-(dimethylamino)ethyl)(methyl)amino)-4-methoxyphenyl)acrylamide]
[1]
  IC50: 41.4 nM

## C=CC(=O)Nc1cc(Nc2nccc(-n3nc(OC)c4cc(Cl)ccc43)n2)c(OC)cc1N(C)CCN(C)C [Example 110, N-(5-((4-(5-chloro-3-methoxy-1H-indazol-1-yl)pyrimidin-2-yl)amino)-2-((2-(dimethylamino)ethyl)(methyl)amino)-4-methoxyphenyl)acrylamide]
[1]
  IC50: 1.06 nM
  Selectivity of wild-type/mutant-type: 9.10
wild-type EGFR enzyme
  IC50: 9.65 nM

## C=CC(=O)Nc1cc(Nc2nccc(-c3cn(C)c4ccccc34)n2)c(OC(F)F)cc1N(C)CCN(C)C [Example 1, N-(4-(difluoromethoxy)-2-((2-(dimethylamino)ethyl)(methyl)amino)-5-((4-(1-methyl-1H-indol-3-yl)pyrimidin-2-yl)amino)phenyl)acrylamide]
[1]
  IC50: 0.15 nM
  Selectivity of wild-type/mutant-type: 13
wild-type EGFR enzyme
  IC50: 2 nM

## C=CC(=O)Nc1cc(Nc2ncc(Cl)c(-n3nc(CCC)c4cc(C#N)ccc43)n2)c(OC)cc1N(C)CCN(C)C [Example 116, N-(5-((5-chloro-4-(5-cyano-3-propyl-1H-indazol-1-yl)pyrimidin-2-yl)amino)-2-((2-(dimethylamino)ethyl)(methyl)amino)-4-methoxyphenyl)acrylamide]
[1]
  IC50: 0.8 nM
  Selectivity of wild-type/mutant-type: 24.45
wild-type EGFR enzyme
  IC50: 19.6 nM

## C=CC(=O)Nc1cc(Nc2nccc(-c3cn(C)c4ccc(C5CC5)cc34)n2)c(OC)cc1N(C)CCN(C)C [Example 23, N-(5-((4-(5-cyclopropyl-1-methyl-1H-indol-3-yl)pyrimidin-2-yl)amino)-2-((2-(dimethylamino)ethyl)(methyl)amino)-4-methoxyphenyl)acrylamide]
[1]
  IC50: 2.75 nM
NCI-H1975 cells
  IC50: 46.8 nM

## C=CC(=O)Nc1cc(Nc2nccc(-n3c(C)nc4ccc(C#N)cc43)n2)c(OC)cc1N(C)CCN(C)C [Example 74, N-(5-((4-(6-cyano-2-methyl-1H-benzo[d]imidazol-1-yl)pyrimidin-2-yl)amino)-2-((2-(dimethylamino)ethyl)(methyl)amino)-4-methoxyphenyl)acrylamide]
[1]
  IC50: 26 nM

## C=CC(=O)Nc1cc(Nc2nccc(-n3cnc4cc(OC)ccc43)n2)c(OC)cc1N(C)CCN(C)C [Example 59, N-(2-((2-(dimethylamino)ethyl)(methyl)amino)-4-methoxy-5-((4-(5-methoxy-1H-benzo[d]imidazol-1-yl)pyrimidin-2-yl)amino)phenyl)acrylamide]
[1]
  IC50: 0.35 nM
  Selectivity of wild-type/mutant-type: 12.7
wild-type EGFR enzyme
  IC50: 4.44 nM

## C=CC(=O)Nc1cc(Nc2nccc(-c3cn(C)c4ccccc34)n2)c(OC(F)F)cc1N(C)CCN1CCOCC1=O [Example 3, N-(4-(difluoromethoxy)-2-(methyl(2-(3-carbonylmorpholino)ethyl)amino)-5-((4-(1-methyl-1H-indol-3-yl)pyrimidin-2-yl)amino)phenyl)acrylamide]
[1]
  IC50: 144 nM

## C=CC(=O)Nc1cc(Nc2nccc(-c3cn(C)c4cc(F)cc(F)c34)n2)c(OC)cc1N(C)CCN(C)C [Example 29, N-(5-((4-(4,6-difluoro-1-methyl-1H-indol-3-yl)pyrimidin-2-yl)amino)-2-((2-(dimethylamino)ethyl)(methyl)amino)-4-methoxyphenyl)acrylamide]
[1]
  IC50: 16.5 nM

## C=CC(=O)Nc1cc(Nc2nccc(-n3ncc4cc(OC)ccc43)n2)c(OC)cc1N(C)CCN(C)C [Example 43, N-(2-((2-(dimethylamino)ethyl)(methyl)amino)-4-methoxy-5-((4-(5-methoxy-1H-indazol-1-yl)pyrimidin-2-yl)amino)phenyl)acrylamide]
[1]
  IC50: 0.38 nM
  Selectivity of wild-type/mutant-type: 9.8
wild-type EGFR enzyme
  IC50: 3.77 nM
